# According to publication PMC5906745, “Silencing of Chemosensory Protein Gene NlugCSP8 by RNAi Induces Declining Behavioral Responses of Nilaparvata lugens” (Frontiers in Physiology, 2018):
# Like-named read-outs stand apart in the source and are kept apart here.
# Experiments:
# [1] = system: NlugCSP7; set-up: method as in Yang et al., 2014; details: ref Yang et al., 2014; cited from earlier work
# [2] = system: Nilaparvata lugens; assay: H-tube olfactometer behavioral assay; assay type: in vivo; details: macropterous adults, vs liquid paraffin
# Experimental: BPH behavior responses to different ligands were tested in an H-tube olfactometer similar to which previously used by Yi et al. ([2018]) in our laboratory. The H-tube olfactometer mainly consists of two glass tubes (arms) with gauze at its top end. These two glass tubes were connected by another tube (5 cm in diameter, 20 cm long with a hole of 1 cm in the middle for releasing BPH). Twenty macropterous (10 from each sex) BPH adults were introduced into the H-tube and the number of BPH was counted at 30 min after their introduction. Liquid paraffin was used as in control arm. Rubber septa were absorbed in the liquid paraffin and solutions of the odor molecules to be tested (liquid paraffin+ different concentration of tested volatile) and placed at room temperature. After 24 h, one rubber septa from each control and tested volatile was put in each glass arm. After one replication, rubber septa were changed and three treatments (1, 10, and 100 μl/mL) of tested volatiles against macropterous adults were tested in eight replications. After four replications, the H-tube olfactometer was washed with 75% alcohol and the liquid paraffin rubber septa were placed in another arm to complete the other four replications. The impact of NlugCSP8-dsRNA on the preference of N. lugens was also tested by H-tube olfactometer assays. Corresponding control experiments without dsRNA injection were performed to investigate whether the preference of N. lugens was affected by volatile concentration change. Three treatments of BPH (NlugCSP8-dsRNA injected, GFP-dsRNA injected, and without injection) were tested in four replications. As in case of dsRNA injected insects, the concentration of volatiles that have highly significant attractive results on non-injected insects used for dsCSP8 and dsGFP injected insects. In order to evaluate the best RNAi effect, mRNA levels of NlugCSP8-dsRNA injected insects were determined and compared with the GFP-dsRNA-injected and non-injected insects, prior to H-tube olfactometer bioassay. Based on the findings of previous step, we re-inject the BPH and the individuals with the best post-injection RNAi effect after 7-days, were used in the H-tube olfactometer bioassay. Bioassays were performed under controlled conditions at 26 ± 2°C and 75 ± 5% relative humidity.
# [3] = system: Nilaparvata lugens; assay: H-tube olfactometer assay after RNAi (dsRNA-injected BPH); assay type: in vivo; details: 10 μl/mL (nerolidol), 100 μl/mL (hexanal); compared with controls
# Experimental: BPH behavior responses to different ligands were tested in an H-tube olfactometer similar to which previously used by Yi et al. ([2018]) in our laboratory. The H-tube olfactometer mainly consists of two glass tubes (arms) with gauze at its top end. These two glass tubes were connected by another tube (5 cm in diameter, 20 cm long with a hole of 1 cm in the middle for releasing BPH). Twenty macropterous (10 from each sex) BPH adults were introduced into the H-tube and the number of BPH was counted at 30 min after their introduction. Liquid paraffin was used as in control arm. Rubber septa were absorbed in the liquid paraffin and solutions of the odor molecules to be tested (liquid paraffin+ different concentration of tested volatile) and placed at room temperature. After 24 h, one rubber septa from each control and tested volatile was put in each glass arm. After one replication, rubber septa were changed and three treatments (1, 10, and 100 μl/mL) of tested volatiles against macropterous adults were tested in eight replications. […] In order to evaluate the best RNAi effect, mRNA levels of NlugCSP8-dsRNA injected insects were determined and compared with the GFP-dsRNA-injected and non-injected insects, prior to H-tube olfactometer bioassay. […]
# [4] = target: T1, NlugCSP8 (Nilaparvata lugens, UniProt B7TVH4); assay: Fluorescence competitive ligand binding assay with 1-NPN probe
# T1 sequence (B7TVH4 entry or part of it): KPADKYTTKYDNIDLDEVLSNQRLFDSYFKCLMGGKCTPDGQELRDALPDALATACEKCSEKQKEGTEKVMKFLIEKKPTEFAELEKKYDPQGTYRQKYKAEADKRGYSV
# Experimental: The recombinant pET-30a/CSP8 expression plasmid was transformed into Escherichia coli BL21 (DE3) competent cells. After DNA sequencing, a single positive clone was grown in 10 mL Luria-Bertani (LB) medium containing kanamycin (50 μg/mL) with shaking overnight at 220 rpm and 37°C. The culture was diluted to 2 L LB medium (supplemented with 50 μg/mL kanamycin) and grown at 37°C with shaking at 220 rpm until the culture reached the optical density value of ~0.6–0.7 at 600 nm. The recombinant protein expression was induced by the addition of 2 mM IPTG (Isopropyl β-D-1-thiogalactopyranoside), followed by culturing for 4 h at 37°C. The bacterial cells were harvested by centrifugation (10,000 rpm, 10 min) and sonicated. The expressed protein presented in the supernatant as a soluble form. Then, NlugCSP8 purification was performed using a Ni-ion affinity chromatography column (GE Healthcare, Uppsala, Sweden). His-tag was removed from the recombinant protein with the addition of recombinant bovine enterokinase (EK) in the eluted fractions of protein, followed by 16 h incubation at 25°C. After running the digested protein back through the Ni-ion affinity chromatography column, the tag-free protein was obtained in the flow through fraction. Protein expression and purification steps were assessed by 15% SDS-PAGE (sodium dodecyl sulfate-polyacrylamide gel electrophoresis). Finally, purified protein was dialyzed in Tris buffer (pH 5.0) and (pH 7.4). The concentration of purified protein was determined prior to perform ligand-binding specificities of NlugCSP8 with 25 selected ligands at pH 5.0 and pH 7.4.
# Fluorescence-based ligand binding assays were performed based on the method described by Sun X. et al. ([2016]). According to previous studies about the rice-specific volatiles (Fujii et al., [2010]; He et al., [2011]; Yang et al., [2014]; Zhang et al., [2014]), 25 potential ligands were selected for the fluorescence binding assays (Table 1). All the ligands used in this study were purchased from Sigma-Aldrich (St. Louis, MO, USA) and stored according to manufacturer instructions. The ligand binding affinity for various ligands was determined by using the 1-NPN (N-phenyl-1-naphthylamine) as a fluorescent probe. RF-5301PC fluorimeter (Shimadzu, Kyoto, Japan) was used for fluorescence binding assay at 25°C with 10 nm slit width and 1 cm light path quartz cuvette for emission and excitation. The 1-NPN/NlugCSP8 mixture was excited using an excitation wavelength of 337 nm, and the fluorescence intensity was recorded between 350 and 600 nm following an established protocol (Ban et al., [2002]). The 1-NPN and all the potential ligands were prepared in spectrophotometric-grade methanol. The binding constant for 1-NPN was measured by adding aliquots of 1 mM 1-NPN into a 2 μM solution of protein in 30 mM Tris-HCL at room temperature. […] For each test, fluorescence measurement was conducted after the reaction was incubated for 2 min at room temperature (Liu et al., [2015]). Three independent measurements were used to obtain the binding data. 1-NPN/NlugCSP8 dissociation constants (Kd) were calculated from Scatchard plots of the binding data using the Prism 5 software (GraphPad, La Jolla, CA, USA). The curves were linearized using the Scatchard plot program (Campanacci et al., [2001]). The dissociation constants of the competitors were determined by using the corresponding IC50-values according to the equation Ki = [IC50]/ (1+[1-NPN]/K1−NPN), where IC50 represents the concentration of ligand which decreases the fluorescence intensity of [1-NPN], [1-NPN] is the free concentration of 1-NPN and K1−NPN is the dissociation constant of the NlugCSP8/1-NPN complex (Ban et al., [2003]; Tian and Zhang, [2016]). For the reader's convenience, data were recalculated as 1/ki × 1,000, for which a larger value designates a stronger ligand binding affinity.
# [5] = target: T1, NlugCSP8; assay: Titration of NlugCSP8 with 1-NPN (Scatchard plot); assay type: binding; details: read-out: dissociation constant
# Experimental: Fluorescence-based ligand binding assays were performed based on the method described by Sun X. et al. ([2016]). According to previous studies about the rice-specific volatiles (Fujii et al., [2010]; He et al., [2011]; Yang et al., [2014]; Zhang et al., [2014]), 25 potential ligands were selected for the fluorescence binding assays (Table 1). All the ligands used in this study were purchased from Sigma-Aldrich (St. Louis, MO, USA) and stored according to manufacturer instructions. The ligand binding affinity for various ligands was determined by using the 1-NPN (N-phenyl-1-naphthylamine) as a fluorescent probe. RF-5301PC fluorimeter (Shimadzu, Kyoto, Japan) was used for fluorescence binding assay at 25°C with 10 nm slit width and 1 cm light path quartz cuvette for emission and excitation. The 1-NPN/NlugCSP8 mixture was excited using an excitation wavelength of 337 nm, and the fluorescence intensity was recorded between 350 and 600 nm following an established protocol (Ban et al., [2002]). The 1-NPN and all the potential ligands were prepared in spectrophotometric-grade methanol. The binding constant for 1-NPN was measured by adding aliquots of 1 mM 1-NPN into a 2 μM solution of protein in 30 mM Tris-HCL at room temperature. […] For each test, fluorescence measurement was conducted after the reaction was incubated for 2 min at room temperature (Liu et al., [2015]). […]
# [6] = system: BPH; set-up: method as in Obata et al., 1983; details: volatile isolated from rice plants; ref Obata et al., 1983; cited from earlier work
# [7] = pH 5.0, calculated from IC50, read-out: Ki
# [8] = pH 7.4, calculated from IC50, read-out: Ki
# [9] = Ki, pH 5.0, calculated from IC50
# [10] = Ki, pH 7.4, calculated from IC50
SMILES,"Ki [4, 7] [µM]","IC50 ([4]; pH 5.0, read-out: IC50) [µM]","Ki [4, 8] [µM]","IC50 ([4]; pH 7.4, read-out: IC50) [µM]","IC50 ([4]; IC50, pH 5.0) [µM]","IC50 ([4]; IC50, pH 7.4) [µM]","Ki [4, 9] [µM]","Ki [4, 10] [µM]",other results
C=CC(C)(O)CCC=C(C)CCC=C(C)C (mixture of isomers) [Nerolidol],8.38,9.61,10,12,,,,,binding affinity with NlugCSP7 [1]: weak affinities; behavioral response of BPH ([2]; 10 μl/mL): significant attraction; behavior response of dsCSP8-injected (RNAi) BPH to attractant [3]: attraction activity was completely lost and lost
"CC1=CCC2C(C1)C2(C)C (single isomer, unassigned; (+)) [(+)-3-Carene]",34.8,39.9,27,32.4,,,,,
"c1ccc(Nc2cccc3ccccc23)cc1 [1-NPN, N-phenyl-1-naphthylamine]",,,,,,,,,Kd ([5]; pH 5.0): 6.8 µM; Kd ([5]; pH 7.4): 4.99 µM
C=CC(O)CCCCC (stereo not shown) [1-Octen-3-ol],19.2,22.1,19.4,23.3,,,,,
CCCCCC(C)O (stereo not shown) [2-Heptanol],9.77,11.2,13.8,16.5,,,,,behavioral response of BPH ([2]; concentration not given): significant aversion
CCCCCCCCCCCC(C)=O [2-Tridecanone],10.4,12,12.5,15,,,,,attraction of BPH [6]: able to attract BPH; binding affinity with NlugCSP7 [1]: relatively weak binding affinity
CCC(O)CC [3-Pentanol],27.4,31.4,19.6,23.5,,,,,
Cc1ccc(C(C)C)cc1 [4-Isopropyl to luene],,,,,22.7,20.3,19.8,16.9,
CC1=CC[C@](O)(C(C)C)CC1 [(–)-Terpinen-4-ol],,,,,11.4,19,9.97,15.8,behavioral response of BPH ([2]; 1 μl/mL): attractive; behavioral response of BPH ([2]; 10 μl/mL): attractive
CC/C=C\CCO [Cis-3-hexen-1-ol],,,,,38,27.5,33.1,22.9,
OC1CCCCC1 [Cyclohexanol],,,,,95.5,51.2,83.3,42.7,
CCCCCCCCCCCC=O [Dodecyl aldehyde],28.4,32.6,12.2,14.6,,,,,
CCCCCCCCCCCCCCCCCCCC [Eicosane],12.2,14,12.4,14.9,,,,,
